{"source": "patent US11298372B2", "about": "“Composition for ameliorating loss of hair and graying of hair, and use thereof” (National University Corporation Tokyo Medical and Dental …, priority 2016, dated 2022)", "key": {"aged mice [1]": {"tested_on": "aged mice", "assay": "Comparison of the hair-increasing effects of apocynin and minoxidil in aged mice", "assay_type": "in vivo, mouse", "details": "17-month-old female C57BL/6NCrSIc mice, 100 μl of 200 μM solution applied for 28 days, day 14; comparator Ri-UP X5 PLUS (minoxidil 5 g/100 ml)", "protocol": "Apocynin (A727200; Tront Research Chemicals) was adjusted to the concentration of 20 mM with DMSO, and 200 LM apocynin solution (1% apocynin 20 mM, 49% water, 50% ethanol) was prepared as the solution to be applied on mice. As the control solution, 1% DMSO (Sigma Aldrich), 49% water, 50% ethanol was prepared. For the minoxidil solution, Ri-UP X5 PLUS® (5 g/100 ml, Taisho Pharmaceutical Co., Ltd.) was used. After six 17-month-old female C57BL/6[…] mice were anesthetized by inhalation of isoflurane (Pfizer), the hair on the back of the neck was removed. The three mice in the minoxidil treatment group were applied with 100 μl of minoxidil, and the apocynin treatment group with 100 μl of the 200 μM apocynin solution for 28 days. For the follow-ups, photo images of the representative first day (day 1) and the last day (day 28) are shown (FIG. 12)."}, "Col17A1": {"tested_on": "Col17A1", "assay": "Induction of COL17A1 expression in HaCat cells (Western blotting)", "assay_type": "cell-based, human", "details": "48 hours", "protocol": "HaCat cells (human epidermal keratinocyte strain) were seeded in 10% FBS-containing D-MEM medium in a 6-well plate at 1×10^5 cells per well, and apocynin was added to be 1-60 μM. After 48 hours of culturing, an anti-Col17A1 antibody was used as the primary antibody, and Western blotting was carried out. An anti-GAPDH antibody was used as the internal control. The 180 KDa band of Col17A1 and the internal control GAPDH band were quantified for their densities using an LAS-3000 luminescence image analyzer. […] HaCat cells (human epidermal keratinocyte strain) were seeded in 10% FBS-containing D-MEM medium in a 6-well plate at 1×10^5 cells per well, and ascorbic acid (Wako Pure Chemical Industries, Ltd.) was added to be 0.3-60 jag/ml. After 48 hours of culturing, an anti-Col17A1 antibody was used as the primary antibody, and Western blotting was carried out. An anti-β-tubulin antibody was used as the internal control. The 180 KDa band of Col17A1 and the internal control β-tubulin band were quantified for their densities using an LAS-3000 luminescence image analyzer. […] HaCat cells (human epidermal keratinocyte strain) were seeded in 10% FBS-containing D-MEM medium in a 6-well plate at 1×10^5 cells per well, and Marimastat (MMP inhibitor) was added to be 3 μM. After 48 hours of culturing, an anti-Col17A1 antibody was used as the primary antibody, and Western blotting was carried out. An anti-β-tubulin antibody was used as the internal control. The 180 KDa band of Col17A1 and the internal control β-tubulin band were quantified for their densities using an LAS-3000 luminescence image analyzer."}, "aged mice [2]": {"tested_on": "aged mice", "assay": "Hair-increasing effect in aged mice (application on the back of the neck)", "assay_type": "in vivo, mouse", "details": "26-27-month-old female C57BL/6NCrSlc mice, 100 μl of 200 μM solution applied for 28 days, day 28", "protocol": "Apocynin (A727200; Tront Research Chemicals) was adjusted to the concentration of 20 mM with DMSO, and 200 LM apocynin solution (1% apocynin 20 mM, 49% water, 50% ethanol) was prepared as the solution to be applied on mice. As the control solution, 1% DMSO (Sigma Aldrich), 49% water, 50% ethanol was prepared. After an anesthetic procedure was performed on five 27-month-old and one 26-month-old female C57BL/6[…] mice, hair on the back of the neck was removed. The three mice in the control solution treatment group were applied with 100 μl of the control solution, and the apocynin solution treatment group with 100 μl of the 200 μM apocynin solution for 28 days. For the follow-ups, photo images of the representative first day (day 1) and the last day (day 28) are shown (FIG. 11)."}, "irradiated mice [3]": {"tested_on": "irradiated mice", "assay": "Test of intradermal administration in irradiated mice", "assay_type": "in vivo, mouse", "details": "7-week-old male C57BL/6NCrSlc mice, 5 Gy, 5 mg/ml in DMSO 200 μl (1000 μg) intradermally once a day, 5 times", "protocol": "The hair on the lower back of 7-week-old male C57BL/6NCrSlc mice was removed. Sivelestat was dissolved in DMSO to be 5 mg/ml and 200 μl (=1000 μg) thereof was administered intradermally on back of the sivelestat group mice. On the back of the control group mice, 200 μl of DMSO was administered intradermally. After intradermal administration, the skin of the two groups of mice (day 0) was irradiated with a low voltage radiation of 5 Gy using CABINET X-RAY SYSTEM (Faxitron X-ray corporation). Up to day 4, the same medicinal agents described above were intradermally administered on the back once a day (for a total of 5 times), and weekly follow-ups were carried out after that."}, "irradiated mice [4]": {"tested_on": "irradiated mice", "assay": "Application test on the back of irradiated mice", "assay_type": "in vivo, mouse", "details": "7-week-old male C57BL/6NCrSlc mice, 5 Gy, 10 mg/ml in DMSO 125 μl applied on the back once a day, 5 times", "protocol": "The hair on the lower back of 7-week-old male C57BL/6NCrSlc mice was removed. Sivelestat was dissolved in DMSO to be 10 mg/ml and 125 μl (=[…]) thereof was applied on the back of the sivelestat group mice. On the back of the control group mice, 125 μl of DMSO was applied. After application on the back, the skin of the two groups of mice (day 0) was irradiated with a low voltage radiation of 5 Gy using CABINET X-RAY SYSTEM (Faxitron X-ray Corporation). Up to day 4, the same medicinal agents described above were applied on the back once a day (for a total of 5 times), and weekly follow-ups were carried out after that."}}}
{"smiles": "COc1cc(C(C)=O)ccc1O", "note": "[apocynin]", "values": [{"measurement": "hair growth effect versus minoxidil", "setting": "aged mice [1]", "value": "significant hair growth effect compared to the minoxidil-administered group"}, {"measurement": "Col17A1 expression (180 KDa band, Western blotting)", "setting": "Col17A1; apocynin 1-60 μM, GAPDH internal control", "value": "increase of Col17A1 was observed along with the increase of apocynin"}, {"measurement": "hair growth effect versus control solution", "setting": "aged mice [2]", "value": "significant hair growth effect compared to the control group"}]}
{"smiles": "CC(C)(C)C(=O)Oc1ccc(S(=O)(=O)Nc2ccccc2C(=O)NCC(=O)[O-])cc1.O.O.O.O.[Na+]", "note": "[Sivelestat, Monosodium N-{2-[4-(2,2-dimethylpropanoyloxy)-phenylsulfonylamino]benzoyl}aminoacetate tetrahydrate]", "values": [{"measurement": "hair growth versus control group", "setting": "irradiated mice [3]", "value": "tendency to grow more"}, {"measurement": "graying", "setting": "irradiated mice [3]; 14 weeks and 28 weeks", "value": "suppression of graying was seen"}, {"measurement": "hair growth versus control group", "setting": "irradiated mice [4]", "value": "tendency to grow faster"}, {"measurement": "graying", "setting": "irradiated mice [4]; 14 weeks and 28 weeks", "value": "suppression of graying was seen"}]}
{"smiles": "O=C1O[C@H]([C@@H](O)CO)C(O)=C1O", "note": "[ascorbic acid]", "values": [{"measurement": "Col17A1 expression (180 KDa band, Western blotting)", "setting": "Col17A1; ascorbic acid 0.3-60 jag/ml, β-tubulin internal control", "value": "increase of Col17A1 was observed along with the increase of ascorbic acid"}]}
{"smiles": "CNC(=O)[C@@H](NC(=O)[C@H](CC(C)C)[C@H](O)C(=O)NO)C(C)(C)C", "note": "[Marimastat]", "values": [{"measurement": "Col17A1 expression (180 KDa band, Western blotting)", "setting": "Col17A1; Marimastat 3 μM, β-tubulin internal control", "value": "increase of Col17A1 was observed"}]}
